Experimental data published in the NIST ThermoML archive (doi:10.1021/je0503554).
Several values for one entry are separate records, joined by “and”; a condition that tells them apart may be missing. Equal entries are not always repeated. Numbers after ± are expanded uncertainties.

Assay: activity coefficient (dimensionless); of the first substance listed, at infinite dilution; xn = mol fraction of the nth substance listed
Conditions: Liquid, Chromatography, x1 = 0

With `CCCCCCCCCC` [decane] + CCCCCC[n+]1ccn(C)c1.O=S(=O)([N-]S(=O)(=O)C(F)(F)F)C(F)(F)F the activity coefficient (307.05 K) was 28.5 ± 1.9, the activity coefficient (312.35 K) was 27.4 ± 1.9 and the activity coefficient (322.85 K) was 25.6 ± 1.8. For the same compound, the activity coefficient (333.35 K) was 22.9 ± 1.6.
`CC(C)(C)O` [2-methylpropan-2-ol] + CCCCCC[n+]1ccn(C)c1.O=S(=O)([N-]S(=O)(=O)C(F)(F)F)C(F)(F)F showed an activity coefficient (301.65 K) of 1.7 ± 0.11, an activity coefficient (312.15 K) of 1.51 ± 0.1 and an activity coefficient (322.85 K) of 1.34 ± 0.09. It also gave an activity coefficient (333.35 K) of 1.21 ± 0.08.
Work on `CCCCCCCC` [octane] + CCCCCC[n+]1ccn(C)c1.O=S(=O)([N-]S(=O)(=O)C(F)(F)F)C(F)(F)F yielded an activity coefficient (300.95 K) of 15.2 ± 1, an activity coefficient (312.25 K) of 14.3 ± 0.98 and an activity coefficient (322.85 K) of 13.2 ± 0.9. For the same compound, the activity coefficient (333.25 K) was 12.2 ± 0.84 and the activity coefficient (343.75 K) was 11.5 ± 0.78.
`CCO` [ethanol] + CCCCCC[n+]1ccn(C)c1.O=S(=O)([N-]S(=O)(=O)C(F)(F)F)C(F)(F)F showed an activity coefficient (301.95 K) of 1.95 ± 0.13, an activity coefficient (312.45 K) of 1.71 ± 0.11 and an activity coefficient (323.05 K) of 1.51 ± 0.1. It also gave an activity coefficient (333.45 K) of 1.35 ± 0.09, an activity coefficient (343.95 K) of 1.2 ± 0.08 and an activity coefficient (354.45 K) of 1.08 ± 0.07.
In the case of `C=CCCCCCCCCCC` [1-dodecene] + CCCCCC[n+]1ccn(C)c1.O=S(=O)([N-]S(=O)(=O)C(F)(F)F)C(F)(F)F, the activity coefficient (333.15 K) is reported as 25.6 ± 1.8, the activity coefficient (343.75 K) is reported as 23.1 and 22.7 and the activity coefficient (354.15 K) is reported as 21.1 and 20.5. The activity coefficient (364.55 K) was 19.3 ± 1.3, the activity coefficient (364.65 K) was 18.7 ± 1.3 and the activity coefficient (374.95 K) was 16.9 ± 1.1.
Compound `C1=CCCCC1` [cyclohexene] + CCCCCC[n+]1ccn(C)c1.O=S(=O)([N-]S(=O)(=O)C(F)(F)F)C(F)(F)F has an activity coefficient (301.85 K) of 3.41 ± 0.23, an activity coefficient (312.25 K) of 3.24 ± 0.22 and an activity coefficient (322.85 K) of 3.08 ± 0.21. It also gave an activity coefficient (333.25 K) of 2.94 ± 0.2 and an activity coefficient (343.75 K) of 2.83 ± 0.19.
For `CCCCCC` [hexane] + CCCCCC[n+]1ccn(C)c1.O=S(=O)([N-]S(=O)(=O)C(F)(F)F)C(F)(F)F, the activity coefficient (301.85 K) was 8.03 ± 0.55, the activity coefficient (312.25 K) was 7.65 ± 0.52 and the activity coefficient (322.85 K) was 7.41 ± 0.51. It also gave an activity coefficient (333.25 K) of 6.94 ± 0.47 and an activity coefficient (343.75 K) of 6.74 ± 0.46.
In the case of `CCCCCC(=O)OC` [methyl hexanoate] + CCCCCC[n+]1ccn(C)c1.O=S(=O)([N-]S(=O)(=O)C(F)(F)F)C(F)(F)F, the activity coefficient (343.65 K) is reported as 1.39 ± 0.09, the activity coefficient (354.15 K) is reported as 1.35 ± 0.09 and the activity coefficient (364.65 K) is reported as 1.29 ± 0.08. It also gave an activity coefficient (375.15 K) of 1.25 ± 0.08 and an activity coefficient (385.65 K) of 1.2 ± 0.08.
With `CCCCCCCO` [heptan-1-ol] + CCCCCC[n+]1ccn(C)c1.O=S(=O)([N-]S(=O)(=O)C(F)(F)F)C(F)(F)F the activity coefficient (354.05 K) was 4.61 ± 0.31, the activity coefficient (364.63 K) was 4.13 ± 0.28 and the activity coefficient (375.05 K) was 3.73 ± 0.25. The activity coefficient (385.6 K) was 3.42 ± 0.23.
With `C1=CCCC=C1` [1,3-cyclohexadiene] + CCCCCC[n+]1ccn(C)c1.O=S(=O)([N-]S(=O)(=O)C(F)(F)F)C(F)(F)F the activity coefficient (312.05 K) was 1.8 ± 0.12, the activity coefficient (322.65 K) was 1.76 ± 0.12 and the activity coefficient (333.15 K) was 1.72 ± 0.12. The activity coefficient (343.65 K) was 1.67 ± 0.11 and the activity coefficient (354.25 K) was 1.62 ± 0.11.
Work on `CC#N` [acetonitrile] + CCCCCC[n+]1ccn(C)c1.O=S(=O)([N-]S(=O)(=O)C(F)(F)F)C(F)(F)F yielded an activity coefficient (312.25 K) of 0.456 ± 0.036, an activity coefficient (322.85 K) of 0.446 ± 0.036 and an activity coefficient (333.35 K) of 0.434 ± 0.035. For the same compound, the activity coefficient (343.85 K) was 0.426 ± 0.035 and the activity coefficient (354.25 K) was 0.413 ± 0.034.
`CCCCCCCC=O` [octanal] + CCCCCC[n+]1ccn(C)c1.O=S(=O)([N-]S(=O)(=O)C(F)(F)F)C(F)(F)F showed an activity coefficient (354.05 K) of 1.9 ± 0.13, an activity coefficient (364.45 K) of 1.92 ± 0.13 and an activity coefficient (374.95 K) of 1.94 ± 0.13. It also gave an activity coefficient (385.45 K) of 1.96 ± 0.13 and an activity coefficient (395.95 K) of 1.97 ± 0.13.
Compound `CCCCCCO` [hexan-1-ol] + CCCCCC[n+]1ccn(C)c1.O=S(=O)([N-]S(=O)(=O)C(F)(F)F)C(F)(F)F has an activity coefficient (354.05 K) of 2.18 ± 0.15, an activity coefficient (364.55 K) of 1.97 ± 0.13 and an activity coefficient (374.95 K) of 1.82 ± 0.12. It also gave an activity coefficient (385.45 K) of 1.67 ± 0.11 and an activity coefficient (395.95 K) of 1.56 ± 0.1.
Work on `CC(C)O` [propan-2-ol] + CCCCCC[n+]1ccn(C)c1.O=S(=O)([N-]S(=O)(=O)C(F)(F)F)C(F)(F)F yielded an activity coefficient (301.65 K) of 1.93 ± 0.13, an activity coefficient (312.25 K) of 1.68 ± 0.11 and an activity coefficient (322.75 K) of 1.49 ± 0.1. It also gave an activity coefficient (333.25 K) of 1.33 ± 0.09, an activity coefficient (343.75 K) of 1.21 ± 0.08 and an activity coefficient (354.05 K) of 1.09 ± 0.07.
For `CCCO` [propan-1-ol] + CCCCCC[n+]1ccn(C)c1.O=S(=O)([N-]S(=O)(=O)C(F)(F)F)C(F)(F)F, the activity coefficient (312.45 K) was 2.15 ± 0.15, the activity coefficient (323.05 K) was 1.86 ± 0.13 and the activity coefficient (333.45 K) was 1.63 ± 0.11. It also gave an activity coefficient (343.95 K) of 1.43 ± 0.09 and an activity coefficient (354.45 K) of 1.27 ± 0.08.
Compound `CCC(C)O` (stereo not given) [butan-2-ol] + CCCCCC[n+]1ccn(C)c1.O=S(=O)([N-]S(=O)(=O)C(F)(F)F)C(F)(F)F has an activity coefficient (301.65 K) of 2.14 ± 0.15, an activity coefficient (312.15 K) of 1.9 ± 0.13 and an activity coefficient (322.85 K) of 1.66 ± 0.11. For the same compound, the activity coefficient (333.35 K) was 1.47 ± 0.1.
`CCC(C)(C)O` [2-methylbutan-2-ol] + CCCCCC[n+]1ccn(C)c1.O=S(=O)([N-]S(=O)(=O)C(F)(F)F)C(F)(F)F showed an activity coefficient (301.65 K) of 1.7 ± 0.11, an activity coefficient (312.25 K) of 1.53 ± 0.1 and an activity coefficient (322.75 K) of 1.4 ± 0.09. It also gave an activity coefficient (333.25 K) of 1.3 ± 0.08, an activity coefficient (343.75 K) of 1.22 ± 0.08 and an activity coefficient (354.05 K) of 1.14 ± 0.07. It also gave an activity coefficient (364.55 K) of 1.06 ± 0.07.
Work on `CCCCCCCCCCC` [undecane] + CCCCCC[n+]1ccn(C)c1.O=S(=O)([N-]S(=O)(=O)C(F)(F)F)C(F)(F)F yielded an activity coefficient (312.35 K) of 37.3 ± 2.5, an activity coefficient (322.85 K) of 34.1 ± 2.3 and an activity coefficient (333.35 K) of 30 ± 2. For the same compound, the activity coefficient (343.75 K) was 27.7 ± 1.9 and the activity coefficient (354.25 K) was 26 ± 1.8.
`CCCCC` [pentane] + CCCCCC[n+]1ccn(C)c1.O=S(=O)([N-]S(=O)(=O)C(F)(F)F)C(F)(F)F showed an activity coefficient (301.95 K) of 6.26 ± 0.43, an activity coefficient (312.45 K) of 5.44 ± 0.37 and an activity coefficient (323.05 K) of 5.33 ± 0.36. The activity coefficient (333.45 K) was 4.72 ± 0.32 and the activity coefficient (343.95 K) was 4.09 ± 0.28.
Compound `CCCCC(=O)OC` [methyl pentanoate] + CCCCCC[n+]1ccn(C)c1.O=S(=O)([N-]S(=O)(=O)C(F)(F)F)C(F)(F)F has an activity coefficient (322.75 K) of 1.04 ± 0.07, an activity coefficient (333.25 K) of 1.03 ± 0.06 and an activity coefficient (343.65 K) of 1.01 ± 0.06. For the same compound, the activity coefficient (354.15 K) was 0.99 ± 0.06.
With `C1COCCO1` [1,4-dioxane] + CCCCCC[n+]1ccn(C)c1.O=S(=O)([N-]S(=O)(=O)C(F)(F)F)C(F)(F)F the activity coefficient (375.15 K) was 0.04 and the activity coefficient (396.15 K) was 0.047.
In the case of `CCCCO` [butan-1-ol] + CCCCCC[n+]1ccn(C)c1.O=S(=O)([N-]S(=O)(=O)C(F)(F)F)C(F)(F)F, the activity coefficient (322.65 K) is reported as 2.06 ± 0.14, the activity coefficient (333.15 K) is reported as 1.83 ± 0.12 and the activity coefficient (343.65 K) is reported as 1.67 ± 0.11. The activity coefficient (354.15 K) was 1.53 ± 0.1.
`C=CCCCCCCCC` [1-decene] + CCCCCC[n+]1ccn(C)c1.O=S(=O)([N-]S(=O)(=O)C(F)(F)F)C(F)(F)F showed an activity coefficient (312.25 K) of 16 ± 1.1, an activity coefficient (322.85 K) of 15.2 ± 1 and an activity coefficient (333.15 K) of 14.1 ± 0.96. The activity coefficient (333.25 K) was 14.4 ± 0.98, the activity coefficient (343.75 K) was 13.5 and 13.3 and the activity coefficient (354.15 K) was 13.1 ± 0.89. The activity coefficient (364.55 K) was 11.9 ± 0.81.
In the case of `CCCCCCCCC` [nonane] + CCCCCC[n+]1ccn(C)c1.O=S(=O)([N-]S(=O)(=O)C(F)(F)F)C(F)(F)F, the activity coefficient (307.05 K) is reported as 21.4 ± 1.5, the activity coefficient (312.35 K) is reported as 20.5 and 20.3 and the activity coefficient (322.85 K) is reported as 18.9 and 18.6.
`CC(C)=O` [acetone] + CCCCCC[n+]1ccn(C)c1.O=S(=O)([N-]S(=O)(=O)C(F)(F)F)C(F)(F)F gave an activity coefficient (301.75 K) of 0.352 ± 0.032, an activity coefficient (302.25 K) of 0.352 ± 0.032 and an activity coefficient (312.25 K) of 0.357 ± 0.033. It also gave an activity coefficient (322.85 K) of 0.362 ± 0.033, an activity coefficient (333.35 K) of 0.366 ± 0.033 and an activity coefficient (343.85 K) of 0.371 ± 0.033. It also gave an activity coefficient (354.25 K) of 0.375 ± 0.033.
With `C=CCCCCCCC` [1-nonene] + CCCCCC[n+]1ccn(C)c1.O=S(=O)([N-]S(=O)(=O)C(F)(F)F)C(F)(F)F the activity coefficient (312.25 K) was 12.5 ± 0.85, the activity coefficient (322.75 K) was 11.8 ± 0.81 and the activity coefficient (333.15 K) was 11.2 ± 0.76. For the same compound, the activity coefficient (333.35 K) was 11.1 ± 0.75, the activity coefficient (343.75 K) was 10.5 ± 0.71 and the activity coefficient (354.15 K) was 9.99 ± 0.68. For the same compound, the activity coefficient (364.55 K) was 9.54 ± 0.65.
